Format in all cases: cell-based, hepatitis C virus
Experiment [1] concerns genotype 1b (Con1) stable HCV replicon in Huh-7-derived cells. As to the kind of experiment: Stable subgenomic HCV replicon EC50, genotype 1b (Renilla luciferase). The note with it: Hepatitis C virus, stable replicon genotype 1b, 72 h, read-out: EC50 1B RLUC. As for the experimental part:
(§1) Antiviral potency (EC50) was determined in both stable subgenomic HCV replicon cell lines and transient-transfected HCV replicon cells. The term half maximal effective concentration (EC50) refers to the concentration of a drug which induces a response halfway between the baseline and maximum after the exposure time specified below.
(§2) Stable subgenomic HCV replicons for genotype 1a, 1b, 2a, 3a, and 4a were established in Huh-7-derived cells as described by Lohmann et al (Lohmann V, Korner F, Koch J, et al Replication of subgenomic hepatitis C virus RNAs in a hepatoma cell line. Science 1999; 285:119-3) Each stable cell line contains a bicistronic HCV replicon that encodes a humanized Renilla luciferase (hRLuc) reporter gene fused to a selectable neomycin-resistance gene, followed by an EMCV IRES and the NS3-NS5B coding region of HCV. […] Luciferase activity was measured as a marker for intracellular HCV replication levels.
(§3) The genotype 1a stable replicon was derived from the H77 HCV strain and contained adaptive mutations P1496L and S2204I. The genotype 1b stable replicon was derived from the Con1 HCV strain and contained adaptive mutations E1202G, T1280I and K1846T. […] The genotype 3a stable replicon was derived from the S52 HCV strain and contained adaptive mutations P1121L, A1198T and S2210I (equivalent to S2204I in genotype 1). The genotype 4a stable replicon was derived from the ED43 HCV strain and contained adaptive mutations Q1691R and S2204I. All replicon cell lines were propagated in Huh-7-derived cells and maintained in Dulbecco's modified Eagle's Medium (DMEM) supplemented with 10% fetal bovine serum (FBS) and 0.5 mg/mL G418.
(§4) To perform EC50 assays, cells from each HCV replicon were dispensed into 384-well plates. Compounds were dissolved in DMSO at a concentration of 10 mM and diluted in DMSO using an automated pipetting instrument. Three-fold serially diluted compounds were directly added to the cells using an automated instrument. […] Seventy-two hours later, cells were lysed and Renilla luciferase activity were quantified as recommended by the manufacturer (Promega-Madison, Wis.). Non-linear regression was performed to calculate EC50 values.
Background: Replicon systems follow genome replication, usually without infectious particles.

The subject of experiment [2] is genotype 3a (S52) wild type transient HCV replicon in Huh-7-derived cells. The experiment in a line: Transient-transfected HCV replicon EC50, genotype 3a wild type. To be noted: Hepatitis C virus; transient-transfected replicon genotype 3a wild type, 72 h; read-out: EC50 3A WT.
The subject of experiment [3] is genotype 1a (H77) stable HCV replicon in Huh-7-derived cells. As to the kind of experiment: Stable subgenomic HCV replicon EC50, genotype 1a (Renilla luciferase). To be noted: Hepatitis C virus, stable replicon genotype 1a, 72 h, read-out: EC50 1A RLUC. As for the experimental part:
as §1, §2, §3, §4

The test system of experiment [4] is genotype 1a NS3/4a protease inhibitor resistant variant R155K transient HCV replicon in Huh-7-derived cells. As to the kind of experiment: Transient-transfected HCV replicon EC50, genotype 1a R155K. The note with it: Hepatitis C virus, 72 h, read-out: EC50 1A R155K, transient-transfected replicon genotype 1a R155K resistant variant, 72 h.
In experiment [5] the test system is genotype 1a (H77) wild type transient HCV replicon in Huh-7-derived cells. As to the kind of experiment: Transient-transfected HCV replicon EC50, genotype 1a wild type. The note with it: Hepatitis C virus, 72 h, transient-transfected replicon genotype 1a wild type, read-out: EC50 1A WT.
The subject of experiment [6] is genotype 3a (S52) stable HCV replicon in Huh-7-derived cells. As to the kind of experiment: Stable subgenomic HCV replicon EC50, genotype 3a (Renilla luciferase). To be noted: Hepatitis C virus, 72 h, read-out: EC50 3A RLUC. How it is done:
as §1, §2, §3, §4

Experiment [7] deals with genotype 2a (JFH-1) stable HCV replicon in Huh-7-derived cells. As to the kind of experiment: Stable subgenomic HCV replicon EC50, genotype 2a (Renilla luciferase). The note with it: Hepatitis C virus, stable replicon genotype 2a, 72 h, read-out: EC50 2A RLUC. How it is done: as §1, §2, §3, §4
The test system of experiment [8] is genotype 4a (ED43) stable HCV replicon in Huh-7-derived cells. As to the kind of experiment: Stable subgenomic HCV replicon EC50, genotype 4a (Renilla luciferase). To be noted: Hepatitis C virus, 72 h, read-out: EC50 4A RLUC. As for the experimental part: as §1, §2, §3, §4
For experiment [9], the system named is genotype 1b NS3/4a protease inhibitor resistant variant D168A transient HCV replicon in Huh-7-derived cells. The experiment in a line: Transient-transfected HCV replicon EC50, genotype 1b D168A. To be noted: Hepatitis C virus, 72 h, read-out: EC50 1B D168A, transient-transfected replicon genotype 1b D168A resistant variant, 72 h.
Experiment [10] relates to genotype 1b (Con1) wild type transient HCV replicon in Huh-7-derived cells. The experiment in a line: Transient-transfected HCV replicon EC50, genotype 1b wild type. To be noted: Hepatitis C virus, 72 h, transient-transfected replicon genotype 1b wild type, read-out: EC50 1B WT.

The term EC50 denotes the concentration at which the effect is half-maximal. Consider `CC[C@@H]1[C@@H]2CN(C(=O)[C@H](C(C)(C)C)NC(=O)O[C@@H]3C[C@H]3CCCCCc3nc4ccc(OC)cc4nc3O2)[C@@H]1C(=O)N[C@]1(C(=O)NS(=O)(=O)C2(C)CC2)C[C@H]1CC(F)F` [Example 67, (1aR,5S,8S,9S,10R,22aR)-5-tert-butyl-N-[(1R,2S)-2-(2,2-difluoroethyl)-1-{[(1-methylcyclopropyl)sulfonyl]carbamoyl}cyclopropyl]-9-ethyl-14-methoxy-3,6-dioxo-1,1a,3,4,5,6,9,10,18,19,20,21,22,22a-tetradecahydro-8H-7,10-methanocyclopropa[18,19][1,10,3,6]dioxadiazacyclononadecino[11,12-b]quinoxaline-8-carboxamide], for which the EC50 came out at 12 nM in [1]; 107 nM in experiment [2]; 11 nM in experiment [3]; 42 nM in experiment [4]; 14 nM in experiment [5]; 383 nM in [6]. Further, the EC50 in experiment [7] came to 24 nM; in experiment [8] it was 12 nM; in experiment [9], 86 nM; in experiment [10], 10 nM.
Consider `CC[C@@H]1[C@@H]2CN(C(=O)[C@H](C(C)(C)C)NC(=O)O[C@@H]3[C@H]4CC[C@H](C4)[C@H]3CCCCCc3nc4ccc(OC)cc4nc3O2)[C@@H]1C(=O)N[C@]1(C(=O)NS(=O)(=O)C2(C)CC2)C[C@H]1C(F)F` [Example 37, (1R,4S,4aR,8S,11 S, 12S,13R,25aR)-8-tert-butyl-N-[(1R,2R)-2-(difluoromethyl)-1-{[(1-methylcyclopropyl)sulfonyl]carbamoyl}cyclopropyl]-12-ethyl-17-methoxy-6,9-dioxo-2,3,4,4a,6,7,8,9,12,13,21,22,23,24,25,25a-hexadecahydro-1H,11H-1,4:10,13-dimethanoquinoxalino[2,3-k][1,10,3,6]benzodioxadiazacyclononadecine-11-carboxamide], for which the EC50 in experiment [1] was found to be 22 nM; in experiment [2], 69 nM; in [3], 24 nM; in [4], 51 nM; in [5], 29 nM; in experiment [6], 575 nM. The EC50 in experiment [7] is 16 nM; in experiment [8] it was 15 nM; in experiment [9], 159 nM; in experiment [10] it was 22 nM.
With `CC[C@@H]1[C@@H]2CN(C(=O)[C@H](C(C)(C)C)NC(=O)O[C@@H]3C[C@@H]4C[C@@H]4[C@H]3CCCCC(F)(F)c3nc4ccc(OC)cc4nc3O2)[C@@H]1C(=O)N[C@]1(C(=O)NS(=O)(=O)C2(C)CC2)C[C@H]1C(F)F` [Example 61, (1aS,2aR,6S,9S,10S,11R,23aR,23bS)-6-tert-butyl-N-[(1R,2R)-2-(difluoromethyl)-1-{[(1-methylcyclopropyl)sulfonyl]carbamoyl}cyclopropyl]-10-ethyl-19,19-difluoro-15-methoxy-4,7-dioxo-1a,2,2a,4,5,6,7,10,11,19,20,21,22,23,23a,23b-hexadecahydro-1H,9H-8,11-methanocyclopropa[4′,5′]cyclopenta[1′,2′:18,19][1,10,3,6]dioxadiazacyclononadecino[11,12-b]quinoxaline-9-carboxamide], the EC50 in experiment [1] was 10 nM; in experiment [2], 13 nM; in experiment [3] it was 13 nM; in experiment [4], 10 nM; in experiment [5], 12 nM; in experiment [6], 28 nM. Moreover, the EC50 in experiment [7] amounted to 8.7 nM; in [8] it was 11 nM; in experiment [9], 6.7 nM; in [10], 9.3 nM.
In the case of `C[C@@H]1[C@@H]2CN(C(=O)[C@H](C(C)(C)C)NC(=O)O[C@@H]3C[C@@H]4C[C@@H]4[C@H]3CCCCCc3nc4ccc(C#N)cc4nc3O2)[C@@H]1C(=O)NC1(C(=O)NS(=O)(=O)C2(C)CC2)C[C@H]1C(F)F` (stereo partly drawn) [Example 97, (1aS,2aR,6S,9S,10S,11R,23aR,23bS)-6-tert-butyl-15-cyano-N-[(2R)-2-(difluoromethyl)-1-{[(1-methylcyclopropyl)sulfonyl]carbamoyl}cyclopropyl]-10-methyl-4,7-dioxo-1a,2,2a,4,5,6,7,10,11,19,20,21,22,23,23a,23b-hexadecahydro-1H, 9H-8,11-methanocyclopropa[4′,5′]cyclopenta[1′,2′:18,19][1,10,3,6]dioxadiazacyclononadecino[11,12-b]quinoxaline-9-carboxamide], the EC50 in experiment [1] came out at 4.6 nM; in experiment [2], 5.8 nM; in [3], 6.3 nM; in experiment [4] it was 3.7 nM; in experiment [5] it was 3.6 nM; in [6] it was 67 nM. Besides, the EC50 was 5.8 nM in [7], 5.3 nM in experiment [8], 8.8 nM in experiment [9] and 2.5 nM in experiment [10].
`CC[C@@H]1[C@@H]2CN(C(=O)[C@H](C(C)(C)C)NC(=O)O[C@@H]3C[C@H]3CCCCC(F)(F)c3nc4ccc(C#N)cc4nc3O2)[C@@H]1C(=O)N[C@]1(C(=O)NS(=O)(=O)C2(C)CC2)C[C@H]1C(F)F` [Example 87, (1aR,5S,8S,9S,10R,22aR)-5-tert-butyl-14-cyano-N-[(1R,2R)-2-(difluoromethyl)-1-{[(1-methylcyclopropyl)sulfonyl]carbamoyl}cyclopropyl]-9-ethyl-18,18-difluoro-3,6-dioxo-1,1a,3,4,5,6,9,10,18,19,20,21,22,22a-tetradecahydro-8H-7,10-methanocyclopropa[18,19][1,10,3,6]dioxadiazacyclononadecino[11,12-b]quinoxaline-8-carboxamide]: the EC50 in [1] amounted to 3.9 nM; in experiment [2] it was 7.7 nM; in [3], 4.8 nM; in experiment [4] it was 2.8 nM; in [5], 2.9 nM; in experiment [6] it was 14 nM. The EC50 worked out at 3.3 nM in experiment [7], 3.8 nM in experiment [8], 4 nM in experiment [9] and 1.3 nM in [10].
Take `CC[C@@H]1[C@@H]2CN(C(=O)[C@H](C(C)(C)C)NC(=O)O[C@@H]3C[C@H]3CCCCC(F)c3nc4ccc(OC)cc4nc3O2)[C@@H]1C(=O)N[C@]1(C(=O)NS(=O)(=O)C2(C)CC2)C[C@H]1C(F)F` (stereo partly drawn) [Example 90, (1aR,5S,8S,9S,10R,22aR)-5-tert-butyl-N-[(1R,2R)-2-(difluoromethyl)-1-{[(1-methylcyclopropyl)sulfonyl]carbamoyl}cyclopropyl]-9-ethyl-18-fluoro-14-methoxy-3,6-dioxo-1,1a,3,4,5,6,9,10,18,19,20,21,22,22a-tetradecahydro-8H-7,10-methanocyclopropa[18,19][1,10,3,6]dioxadiazacyclononadecino[11,12-b]quinoxaline-8-carboxamide]: the EC50 in experiment [1] stood at 9.6 nM; in experiment [2] it was 43 nM; in experiment [3] it was 12 nM; in experiment [6], 114 nM; in experiment [7] it was 8.8 nM; in experiment [8], 10.4 nM.

The values are drawn from patent US10335409B2 (priority 2012, dated 2019).
